From ChEMBL document CHEMBL1201862, “PubChem BioAssay data set” (2004)
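Exposure lasted 48 hours, with cells grown in 96-well plates and compounds tested at five concentrations. GI50: concentration for 50% inhibition of growth.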 Activity calls are given as the source filed them. Cut-off read from the data, not from the text of the source: active = GI50 up to about 1.1 µM and inactive = higher.

Assays:
Assay in all cases: DTP human tumour cell line panel, 48 h
[1] = test system: K562
[2] = test system: HCT-15
[3] = test system: SK-OV-3
[4] = test system: NCI-H460
[5] = test system: M14
[6] = test system: COLO 205
[7] = test system: HOP-62
[8] = test system: NCI-H23
[9] = test system: SW-620
[10] = test system: PC-3
[11] = test system: TK-10
[12] = test system: U-251
[13] = test system: EKVX
[14] = test system: A498
[15] = test system: UACC-62
[16] = test system: T47D
[17] = test system: OVCAR-3
[18] = test system: MDA-MB-435
[19] = test system: MDA-MB-231
[20] = test system: SNB-19

`C/C=C/C(CC(O)(C(F)(F)F)C(F)(F)F)=N/NC(N)=S` was tested, and the GI50 [1] was > 10 µM (inactive), the GI50 [2] was greater than 10 µM and the GI50 [3] was > 10 µM (inactive). The GI50 [4] was > 10 µM (inactive), the GI50 [5] was > 10 µM (inactive) and the GI50 [6] was > 10 µM (inactive). The GI50 [7] was > 10 µM (inactive), the GI50 [8] was > 10 µM (inactive) and the GI50 [9] was > 10 µM (inactive). For the same compound, the GI50 [10] was > 10 µM (inactive), the GI50 [11] was > 10 µM (inactive) and the GI50 [12] was > 10 µM (inactive). The GI50 [13] was > 10 µM (inactive), the GI50 [14] was > 10 µM (inactive) and the GI50 [15] was > 10 µM (inactive). The GI50 [16] was > 10 µM (inactive), the GI50 [17] was > 10 µM (inactive) and the GI50 [18] was > 10 µM (inactive). The GI50 [19] was > 10 µM (inactive) and the GI50 [20] was > 10 µM (inactive).

With `Cc1cc2c(cc1Cl)SC(NNC(=O)c1ccncc1)=NS2(=O)=O` the GI50 [1] was > 10 µM (inactive), the GI50 [2] was greater than 10 µM and the GI50 [3] was > 10 µM (inactive). The GI50 [4] was > 10 µM (inactive), the GI50 [5] was > 10 µM (inactive) and the GI50 [6] was > 10 µM (inactive). For the same compound, the GI50 [7] was > 10 µM (inactive), the GI50 [8] was > 10 µM (inactive) and the GI50 [9] was > 10 µM (inactive). For the same compound, the GI50 [10] was > 10 µM (inactive), the GI50 [11] was > 10 µM (inactive) and the GI50 [12] was > 10 µM (inactive). The GI50 [13] was > 10 µM (inactive), the GI50 [14] was > 10 µM (inactive) and the GI50 [15] was > 10 µM (inactive). The GI50 [16] was > 10 µM (inactive), the GI50 [17] was > 10 µM (inactive) and the GI50 [18] was > 10 µM (inactive). For the same compound, the GI50 [19] was > 10 µM (inactive) and the GI50 [20] was > 10 µM (inactive).

In the case of `Cc1nc2cc(C(F)(F)F)ccc2[nH]c1=O`, the GI50 [1] is reported as > 100 µM (inactive), the GI50 [2] is reported as greater than 100 µM and the GI50 [3] is reported as > 100 µM (inactive). For the same compound, the GI50 [4] was > 100 µM (inactive), the GI50 [5] was > 100 µM (inactive) and the GI50 [6] was > 100 µM (inactive). The GI50 [7] was > 100 µM (inactive), the GI50 [8] was > 100 µM (inactive) and the GI50 [9] was > 100 µM (inactive). For the same compound, the GI50 [10] was > 100 µM (inactive), the GI50 [11] was > 100 µM (inactive) and the GI50 [12] was > 100 µM (inactive). The GI50 [13] was 7.08 µM (inactive), the GI50 [14] was > 100 µM (inactive) and the GI50 [15] was 87.7 µM (inactive). The GI50 [16] was 45.5 µM (inactive), the GI50 [17] was > 100 µM (inactive) and the GI50 [18] was > 100 µM (inactive). For the same compound, the GI50 [19] was > 100 µM (inactive) and the GI50 [20] was > 100 µM (inactive).

`O=C(CSCC(=O)N/N=C/c1cccc(O)c1)N/N=C/c1cccc(O)c1` was tested, and the GI50 [1] was > 100 µM (inactive), the GI50 [2] was greater than 100 µM and the GI50 [3] was > 100 µM (inactive). The GI50 [4] was > 100 µM (inactive), the GI50 [5] was > 100 µM (inactive) and the GI50 [6] was > 100 µM (inactive). For the same compound, the GI50 [7] was > 100 µM (inactive), the GI50 [8] was > 100 µM (inactive) and the GI50 [9] was > 100 µM (inactive). The GI50 [10] was > 100 µM (inactive), the GI50 [11] was > 100 µM (inactive) and the GI50 [12] was > 100 µM (inactive). The GI50 [13] was > 100 µM (inactive), the GI50 [14] was > 100 µM (inactive) and the GI50 [15] was > 100 µM (inactive). The GI50 [16] was > 100 µM (inactive), the GI50 [17] was > 100 µM (inactive) and the GI50 [18] was > 100 µM (inactive). The GI50 [19] was > 100 µM (inactive) and the GI50 [20] was > 100 µM (inactive).

With `Nc1ncc(Cl)c(NCC2(CO)CC(CCc3ccccc3)C2)n1` (stereo not given) the GI50 [1] was 0.321 µM (active), the GI50 [2] was greater than 100 µM and the GI50 [3] was > 100 µM (inactive). The GI50 [4] was > 55 µM (inactive), the GI50 [5] was > 100 µM (inactive) and the GI50 [6] was > 100 µM (inactive). The GI50 [7] was > 100 µM (inactive), the GI50 [8] was > 100 µM (inactive) and the GI50 [9] was > 100 µM (inactive). For the same compound, the GI50 [10] was > 100 µM (inactive), the GI50 [11] was 14.4 µM (inactive) and the GI50 [12] was 44.6 µM (inactive). For the same compound, the GI50 [13] was > 24.9 µM (inactive), the GI50 [14] was > 100 µM (inactive) and the GI50 [15] was > 100 µM (inactive). The GI50 [16] was 1.07 µM (active), the GI50 [17] was > 100 µM (inactive) and the GI50 [18] was > 100 µM (inactive). For the same compound, the GI50 [19] was > 100 µM (inactive) and the GI50 [20] was > 100 µM (inactive).

With `CCCC(=O)Nc1cc([N+](=O)[O-])c([N+](=O)[O-])cc1OC` the GI50 [1] was 17.5 µM (inactive), the GI50 [2] was 8.87 µM and the GI50 [3] was 13.9 µM (inactive). The GI50 [4] was 13.3 µM (inactive), the GI50 [5] was 12.8 µM (inactive) and the GI50 [6] was 15.5 µM (inactive). For the same compound, the GI50 [7] was 12.6 µM (inactive), the GI50 [8] was 18.2 µM (inactive) and the GI50 [9] was 22.4 µM (inactive). For the same compound, the GI50 [10] was 27.2 µM (inactive), the GI50 [11] was 17.2 µM (inactive) and the GI50 [12] was 16.3 µM (inactive). For the same compound, the GI50 [13] was 17.7 µM (inactive), the GI50 [14] was 15.7 µM (inactive) and the GI50 [15] was 18.2 µM (inactive). For the same compound, the GI50 [16] was 3.8 µM (inactive), the GI50 [17] was 14.6 µM (inactive) and the GI50 [18] was 18.4 µM (inactive). For the same compound, the GI50 [19] was 19.1 µM (inactive) and the GI50 [20] was 17 µM (inactive).

`COC[C@H]1C(=O)NCC(=O)N2N=CCC[C@H]2C(=O)N(O)[C@H](C)C(=O)O[C@@H](C(C)C)[C@H](NC(=O)[C@@](C)(O)[C@]2(O)CC[C@@H](CC(C)C)[C@H](C)O2)C(=O)N2NCCC[C@@H]2C(=O)N1O` was tested, and the GI50 [1] was 0.02 µM (active), the GI50 [2] was 0.12 µM and the GI50 [3] was 0.0273 µM (active). The GI50 [4] was 0.0166 µM (active), the GI50 [5] was 0.0183 µM (active) and the GI50 [6] was 0.0175 µM (active). For the same compound, the GI50 [7] was 0.0175 µM (active), the GI50 [8] was 0.0163 µM (active) and the GI50 [9] was 0.0157 µM (active). For the same compound, the GI50 [10] was 0.0175 µM (active), the GI50 [11] was 0.0218 µM (active) and the GI50 [12] was 0.0168 µM (active). For the same compound, the GI50 [13] was 0.0292 µM (active), the GI50 [14] was 0.0412 µM (active) and the GI50 [15] was 0.0176 µM (active). For the same compound, the GI50 [16] was 0.0228 µM (active), the GI50 [17] was 0.0183 µM (active) and the GI50 [18] was 0.0164 µM (active). For the same compound, the GI50 [19] was 0.0191 µM (active) and the GI50 [20] was 0.0163 µM (active).

For `CC(=O)C(CN1CCOCC1)C(c1ccccc1)c1c(O)c2ccccc2oc1=O` (stereo not given), the GI50 [1] was > 100 µM (inactive), the GI50 [2] was greater than 100 µM and the GI50 [3] was > 100 µM (inactive). The GI50 [4] was > 100 µM (inactive), the GI50 [5] was > 100 µM (inactive) and the GI50 [6] was > 100 µM (inactive). The GI50 [7] was > 100 µM (inactive), the GI50 [8] was > 100 µM (inactive) and the GI50 [9] was > 100 µM (inactive). For the same compound, the GI50 [10] was > 100 µM (inactive), the GI50 [11] was > 100 µM (inactive) and the GI50 [12] was > 100 µM (inactive). The GI50 [13] was > 100 µM (inactive), the GI50 [14] was > 100 µM (inactive) and the GI50 [15] was > 100 µM (inactive). The GI50 [16] was > 100 µM (inactive), the GI50 [17] was > 100 µM (inactive) and the GI50 [18] was > 100 µM (inactive). The GI50 [19] was 83.9 µM (inactive) and the GI50 [20] was > 100 µM (inactive).

`COC(=O)/C=C/CCC#Cc1ccccc1C#CCC/C=C/C(=O)OC` was tested, and the GI50 [1] was 1.76 µM (inactive), the GI50 [2] was 3.98 µM and the GI50 [3] was 21.7 µM (inactive). For the same compound, the GI50 [4] was 12.4 µM (inactive), the GI50 [5] was 8.97 µM (inactive) and the GI50 [6] was 5.48 µM (inactive). For the same compound, the GI50 [7] was 24.2 µM (inactive), the GI50 [8] was 4.78 µM (inactive) and the GI50 [9] was 4.89 µM (inactive). The GI50 [10] was 14.3 µM (inactive), the GI50 [11] was 30.7 µM (inactive) and the GI50 [12] was 4.32 µM (inactive). For the same compound, the GI50 [13] was 36.1 µM (inactive), the GI50 [14] was 38.5 µM (inactive) and the GI50 [15] was 12.6 µM (inactive). For the same compound, the GI50 [16] was 4.07 µM (inactive), the GI50 [17] was 3.58 µM (inactive) and the GI50 [18] was 6 µM (inactive). For the same compound, the GI50 [19] was 20.1 µM (inactive) and the GI50 [20] was 4.97 µM (inactive).

In the case of `CCC(C)C1NC(=O)C(NC(=O)c2c3nc4c(C(=O)NC5C(=O)NC(C(C)CC)C(=O)N6CCCC6C(=O)N(C)CC(=O)N(C)C(C(C)C)C(=O)OC5C)ccc(C)c4oc-3c(C)c(=O)c2O)C(C)OC(=O)C(C(C)C)N(C)C(=O)CN(C)C(=O)C2CCCN2C1=O` (stereo not given), the GI50 [1] is reported as 0.74 µM (active), the GI50 [2] is reported as 16.6 µM and the GI50 [3] is reported as 11.5 µM (inactive). For the same compound, the GI50 [4] was 0.174 µM (active), the GI50 [5] was 4.2 µM (inactive) and the GI50 [6] was 1.35 µM (inactive). For the same compound, the GI50 [7] was 2.99 µM (inactive), the GI50 [8] was 5.41 µM (inactive) and the GI50 [9] was 1.09 µM (active). The GI50 [10] was 3.99 µM (inactive), the GI50 [11] was 10.2 µM (inactive) and the GI50 [12] was 1.05 µM (active). The GI50 [13] was 14.2 µM (inactive), the GI50 [14] was 2.84 µM (inactive) and the GI50 [15] was 1.14 µM (inactive). The GI50 [16] was 2.84 µM (inactive), the GI50 [17] was 3.24 µM (inactive) and the GI50 [18] was 4.92 µM (inactive). The GI50 [19] was 1.25 µM (inactive) and the GI50 [20] was 11.5 µM (inactive).
